Source: PMC9007595 (Molecular microbiology, 2020)

T1: Mtb HtpG (Mycobacterium tuberculosis, UniProt P9WMJ7)
T1 sequence (P9WMJ7 1-647): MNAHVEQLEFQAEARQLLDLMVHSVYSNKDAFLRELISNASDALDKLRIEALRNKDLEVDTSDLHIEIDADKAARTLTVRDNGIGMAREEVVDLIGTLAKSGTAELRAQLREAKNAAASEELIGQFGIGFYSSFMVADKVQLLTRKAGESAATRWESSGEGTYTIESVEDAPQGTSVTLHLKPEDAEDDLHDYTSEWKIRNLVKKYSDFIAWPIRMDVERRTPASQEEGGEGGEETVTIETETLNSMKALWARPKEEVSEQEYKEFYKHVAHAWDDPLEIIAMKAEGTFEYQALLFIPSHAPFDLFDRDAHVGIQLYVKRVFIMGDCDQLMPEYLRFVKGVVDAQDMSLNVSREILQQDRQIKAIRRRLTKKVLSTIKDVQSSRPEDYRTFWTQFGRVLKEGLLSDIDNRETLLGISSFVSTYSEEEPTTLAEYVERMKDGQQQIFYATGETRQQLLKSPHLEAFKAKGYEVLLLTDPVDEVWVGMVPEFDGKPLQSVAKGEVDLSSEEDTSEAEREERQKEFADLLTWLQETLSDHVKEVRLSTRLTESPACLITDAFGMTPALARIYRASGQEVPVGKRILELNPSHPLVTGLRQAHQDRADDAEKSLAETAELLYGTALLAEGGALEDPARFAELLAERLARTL

B1: purified Mtb HtpG (size exclusion chromatography) (natural protein)
chain: T1 sequence (P9WMJ7 1-647)

Assays:
[1] = target: yeast Hsp90 (S. cerevisiae Hsp82) (Saccharomyces cerevisiae, UniProt P02829); assay: ATPase activity assay with purified protein; assay type: biochemical
Mtb HtpG = target: T1, Mtb HtpG; assay: […]; assay type: binding
SEC = target: the molecule itself; assay: SEC

Sequence of yeast Hsp90 (S. cerevisiae Hsp82) (P02829 whole entry): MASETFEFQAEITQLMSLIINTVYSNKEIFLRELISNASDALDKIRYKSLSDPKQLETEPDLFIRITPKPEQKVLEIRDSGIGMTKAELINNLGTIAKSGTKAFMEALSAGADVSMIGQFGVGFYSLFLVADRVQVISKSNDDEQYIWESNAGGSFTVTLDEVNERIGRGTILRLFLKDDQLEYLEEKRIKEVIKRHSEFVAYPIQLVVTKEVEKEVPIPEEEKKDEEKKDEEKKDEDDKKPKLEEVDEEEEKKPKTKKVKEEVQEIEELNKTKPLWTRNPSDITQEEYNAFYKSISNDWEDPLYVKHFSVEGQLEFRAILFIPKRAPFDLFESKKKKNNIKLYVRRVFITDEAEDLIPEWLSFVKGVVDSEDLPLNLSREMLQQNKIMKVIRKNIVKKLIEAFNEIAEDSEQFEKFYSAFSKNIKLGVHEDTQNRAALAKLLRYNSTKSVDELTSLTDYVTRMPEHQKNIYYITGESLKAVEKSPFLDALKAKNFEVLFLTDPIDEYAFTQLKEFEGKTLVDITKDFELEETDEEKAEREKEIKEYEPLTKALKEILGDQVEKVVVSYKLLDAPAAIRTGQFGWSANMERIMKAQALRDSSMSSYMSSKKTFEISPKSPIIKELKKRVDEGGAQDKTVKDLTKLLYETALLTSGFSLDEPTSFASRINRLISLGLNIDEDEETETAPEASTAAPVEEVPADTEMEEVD

Row | Molecule | ATPase activity assay with purified protein (Figure S19) [1] | Kd (Mtb HtpG) [µM] | binding result (SEC)
1 | COC1=C2C[C@@H](C)C[C@H](OC)[C@H](O)[C@@H](C)/C=C(\C)[C@H](OC(N)=O)[C@@H](OC)/C=C\C=C(/C)C(=O)NC(=CC1=O)C2=O [GA, geldanamycin] | Both proteins exhibited low ATPase activity that was inhibited by GA (Figure S19) | ~15.7 | –
2 | B1 | – | – | binds
